From patent US20230364029A1, “POLYMORPHIC FORMS OF (R)-2-HYDROXY-2-METHYL-4-(2,4,5-TRIMETHYL-3,6-DIOXOCYCLOHEXA-1,4-DIENYL)BUTANAMIDE” (PTC THERAPEUTICS, INC., priority 2014, published 2023)
pEC50: −log10 of the molar value.

How the values were obtained:
[1] = Competitive slurries of Patterns A-F; assay type: physicochemical; settings: competitive slurry of Patterns A-F in 0.5% MC/water, ambient
Method: Competitive slurry experiments of Patterns A, B, C, D, E and F were initiated in IPA, IPA/2% water and 0.5% Methyl Cellulose in water at ambient conditions as summarized in Table 16. Approximately 100 mg of the starting material, Pattern A, was added to a glass vial fitted with a magnetic stir bar. Solvent was added to the vial and allowed to slurry with Pattern A for 15 minutes before approximately 10-20 mg of each relative Pattern (B, C, D, E and F) was added to each vial.

[2] = tested on: Human dermal fibroblasts from Friedreich’s Ataxia patients (GM04078); experiment: Rescue of BSO-stressed FRDA fibroblasts; assay type: cell-based; settings: Friedrich’s Ataxia, Calcein AM viability
Method: An initial screen was performed to identify compounds effective for the amelioration of redox disorders. Test samples were tested for their ability to rescue FRDA fibroblasts stressed by addition of L-buthionine-(S,R)-sulfoximine (BSO), as described in Jauslin et al., Hum. Mol. Genet. 11(24):3055 (2002), Jauslin et al., FASEB J. 17:1972-4 (2003), and International Patent Application WO 2004/003565.
MEM (a medium enriched in amino acids and vitamins, catalog no. 1-31F24-I) and Medium 199 (M199, catalog no. 1-21F22-I) with Earle’s Balanced Salts, without phenol red, were purchased from Bioconcept. Fetal Calf Serum was obtained from PAA Laboratories. Basic fibroblast growth factor and epidermal growth factor were purchased from PeproTech. Penicillin-streptomycin-glutamine mix, L-buthionine (S,R)-sulfoximine, and insulin from bovine pancreas were purchased from Sigma. Calcein AM was purchased from Anaspec. […]
100 microliters of PBS +Ca +Mg containing 1.2 micromolar Calcein AM were then added to each well. […] After that time fluorescence (excitation/emission wavelengths of 485 nm and 525 nm, respectively) was read on a Gemini fluorescence reader. […]

[3] = tested on: cells from patients having Leigh Syndrome (Coriell GMOI503A); experiment: Fibroblast screen similar to Example 12, Leigh Syndrome cells; assay type: cell-based; settings: Homo sapiens
[4] = tested on: cells from patients having Leber’s Hereditary Optic Neuropathy (LHON) (Coriell GM03858); experiment: Fibroblast screen similar to Example 12, LHON cells; assay type: cell-based; settings: Homo sapiens
[5] = tested on: cells from patients having Parkinson’s Disease (Coriell AG20439); experiment: Fibroblast screen similar to Example 12, Parkinson’s Disease cells; assay type: cell-based; settings: Homo sapiens
[6] = tested on: cells from patients having Huntington’s Disease (Coriell GM 04281); experiment: Fibroblast screen similar to Example 12, Huntington’s Disease cells; assay type: cell-based; settings: Homo sapiens
[7] = tested on: cells from patients having Rett’s Disorder (Coriell GM-17567); experiment: Fibroblast screen similar to Example 12, Rett’s Disorder cells; assay type: cell-based; settings: Homo sapiens
[8] = tested on: cells from patients having a CoQ2 mutation (CoQ10 Deficiency); experiment: Fibroblast screen similar to Example 12, CoQ10 Deficiency cells; assay type: cell-based; settings: Homo sapiens
[9] = tested on: cells from patients having Amyotrophic Lateral Sclerosis (ALS) (Coriell ND29523); experiment: Fibroblast screen similar to Example 12, ALS cells; assay type: cell-based; settings: Homo sapiens
auditory HEI-OC 1 cells = experiment: Protection from cisplatin-induced ototoxicity (caspase3/7 activity); assay type: cell-based, mice; settings: overnight pretreatment, 24 hours of 50 uM cisplatin
Method: The conditionally immortalized auditory HEI-OC 1 cells from long-term cultures of transgenic mice Immortomouse™ cochleas as described in Kalinec, G. et al., Audiol. Nerootol. 2003; 8, 177-189/. were maintained in high glucose Dulbecco’s modified Eagle medium (DMEM) containing 10% FBS under permissive conditions, 33° C., 10%CO2. Cells were pretreated overnight with (R)-2-hydroxy-2-methyl-4-(2,4,5-trimethyl-3,6-dioxocyclohexa-1,4-dienyl)butanamide, and apoptosis was detected by caspase3/7 activity after 24 hours of 50 uM cisplatin incubation. Cells incubated in diluent alone were the controls.

CC1=C(C)C(=O)C(CC[C@@](C)(O)C(N)=O)=C(C)C1=O [(R)-2-hydroxy-2-methyl-4-(2,4,5-trimethyl-3,6-dioxocyclohexa-1,4-dienyl)butanamide]
XRPD 24 hrs [1]: A/C
pEC50 [2]: > 7.00
pEC50 [3]: > 7.00
pEC50 [4]: > 7.00
pEC50 [5]: 6.30 to 7.00
pEC50 [6]: > 7.00
pEC50 [7]: > 7.00
pEC50 [8]: > 7.00
pEC50 [9]: > 7.00
EC25 (auditory HEI-OC 1 cells): +++ (+++ indicates less than 100 micromolar)
